Experimental data as given in patent US4762820A, “Therapeutic treatment for congestive heart failure” (Trustees of Boston University, priority 1986, dated 1988).
Several values for one entry are separate records, joined by “and”; a condition that tells them apart may be missing. Identical values can stand only once.

How the values were obtained:
arginine vasopressin [1] = experiment: Change in mean arterial pressure after AVP injection in rats, before and after nasal administration of the selective antagonist; format: in vivo, Wistar rats
Experimental: On the day before experimental testing, each rat was placed under ether anesthesia, and the right iliac artery and the right external jugular vein were catherized with PE-50 tubing. On the day following surgery, with the animal remaining unrestrained, the mean arterial pressure was monitored via a Hewlett-Packard 1280C transducer and a 7702B Recorder.
A vasopressin injection was prepared by diluting commercially obtained Pitressin at 20 U/ml concentration with 5% dextrose in water (hereinafter "D5W") to yield a sterile 20 mU/ml final concentration. […] All intravenous injections of vasopressin were flushed through using an additional volume comprising 0.2-0.3 ml of D5W.
Each experimental animal was tested in two stages: initially, two 0.1 ml injections each containing 2.0 millipressor units of arginine vasopressin were given through the venous catheter over a ten minute period and the individual changes in mean arterial pressure recorded. This stage identified each of the test animals as being susceptible to the physiological effects of vasopressin. The second stage of the experiment comprised release of 0.1 ml containing 250 ug of the selective antagonist onto the nasal mucosae of the rat via a PE-50 catheter which had been inserted into one of the nostrils to a depth of about four millimeters. This administration of the antagonist as a nasal spray onto the mucosae of the nose was followed by repeated injection of 0.1 ml volumes, each containing 2.0 millipressor units of arginine vasopressin, at 10, 20, 30, 60, and 120 minutes after the administration of the selective antagonist. The change in mean arterial pressure was recorded at each of these intervals after each injection of the vasopressin.

arginine vasopressin [2] = conditions: 0.5 mg i.v.; exogenous AVP 20 mU/kg; cited from earlier work

Row | Compound | effect of repeated 2.0 mU vasopressin injection after nasal spraying (arginine vasopressin [1]; 250 ug nasal, for at least the two hours of the test) | Changes in Mean Arterial Pressure After Antagonist Adm. + AVP Injections, 10' (arginine vasopressin [1]; individual rats, 250 ug antagonist onto nasal mucosae, 2.0 mU AVP i.v. 10 min later) | Changes in Mean Arterial Pressure After Antagonist Adm. + AVP Injections, 20' (arginine vasopressin [1]; individual rats, 250 ug antagonist onto nasal mucosae, 2.0 mU AVP i.v. 20 min later) | Changes in Mean Arterial Pressure After Antagonist Adm. + AVP Injections, 30' (arginine vasopressin [1]; individual rats, 250 ug antagonist onto nasal mucosae, 2.0 mU AVP i.v. 30 min later) | Changes in Mean Arterial Pressure After Antagonist Adm. + AVP Injections, 60' (arginine vasopressin [1]; individual rats, 250 ug antagonist onto nasal mucosae, 2.0 mU AVP i.v. 60 min later) | Changes in Mean Arterial Pressure After Antagonist Adm. + AVP Injections, 120' (arginine vasopressin [1]; individual rats, 250 ug antagonist onto nasal mucosae, 2.0 mU AVP i.v. 120 min later) | inhibition of the blood pressure response to exogenous arginine vasopressin (arginine vasopressin [2]) | mean change in arterial pressure (arginine vasopressin [1]; 2.0 millipressor units AVP i.v., mean of the three test animals) | Changes in Mean Arterial Pressure After AVP Injection Alone (arginine vasopressin [1]; individual rats, 2.0 millipressor units AVP i.v., no antagonist)
1 | [1-(β-mercapto-β,β-cyclopentamethylenepropionic acid), 2-(O-methyl)tyrosine]arginine vasopressin [AVP Antagonist] | no significant effect | 0 mm Hg and +5 mm Hg | 0 mm Hg and +5 mm Hg | 0 mm Hg and +5 mm Hg | 0 mm Hg and +5 mm Hg | 0 mm Hg and +5 mm Hg | 80% | – | –
2 | NC(=O)CC[C@@H]1NC(=O)[C@H](Cc2ccccc2)NC(=O)[C@H](Cc2ccc(O)cc2)NC(=O)[C@@H](N)CSSC[C@@H](C(=O)N2CCC[C@H]2C(=O)N[C@@H](CCCN=C(N)N)C(=O)NCC(N)=O)NC(=O)[C@H](CC(N)=O)NC1=O [AVP, arginine vasopressin, reference compound] | – | – | – | – | – | – | – | about 35 mmHg | +37.5 mm Hg and +38.5 mm Hg and +29.0 mm Hg
